Assay results: PubChem BioAssay (NCI)
Where “and” joins values, the source holds several entries; their conditions need not be identical. Equal entries are not always repeated.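 Protocol summary: plate cells (96-well), add compound at 5 concentrations, incubate 48 h, interpolate endpoints linearly. At the GI50, growth is halved. The concentration for full growth arrest is given as TGI.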

Columns and labels:
Assay in all cases: inhibition of tumour cell growth, NCI panel, 48 h
IGROV1 ovarian = test system: IGROV1 ovarian
HS 578T breast = test system: HS 578T breast
HOP-62 NSCLC = test system: HOP-62 NSCLC
SF-268 CNS = test system: SF-268 CNS
SF-295 CNS = test system: SF-295 CNS
DLD-1 colon = test system: DLD-1 colon
XF 498 CNS = test system: XF 498 CNS
KM20L2 colon = test system: KM20L2 colon
SNB-78 CNS = test system: SNB-78 CNS
HOP-18 NSCLC = test system: HOP-18 NSCLC
LXFL 529 NSCLC = test system: LXFL 529 NSCLC

SMILES	TGI (IGROV1 ovarian)	TGI (HS 578T breast)	TGI (HOP-62 NSCLC)	TGI (SF-268 CNS)	TGI (SF-295 CNS)	TGI (DLD-1 colon)	TGI (XF 498 CNS)	TGI (KM20L2 colon)	TGI (SNB-78 CNS)	TGI (HOP-18 NSCLC)	TGI (LXFL 529 NSCLC)	GI50 (HS 578T breast)	GI50 (HOP-62 NSCLC)	GI50 (SF-268 CNS)	GI50 (SF-295 CNS)
O=C(c1ccccc1)c1ccc(N2C(=O)/C(=C/c3ccccc3S)N=C2c2ccccc2)c(N2C(=O)/C(=C/c3ccccc3S)N=C2c2ccccc2)c1	> 100 µM	> 100 µM	> 100 µM	> 100 µM	> 100 µM	–	–	–	–	–	–	–	–	–	–
COc1ccc(/C(C)=C2\CCCN(Cc3ccccc3)C2)cc1	94.3 µM	29.2 µM	33.6 µM	40.6 µM	35.1 µM	–	–	–	–	–	–	–	–	–	–
CSC12c3cc(C)n(-c4ccc(I)cc4)c3CC(C)(C)CN1C(=O)C2Oc1ccccc1 (stereo not drawn)	> 100 µM	> 100 µM	> 100 µM	> 100 µM	> 100 µM	–	–	–	–	–	–	–	–	–	–
C/C(=C\[Si](C)(C)c1ccco1)C(C)(O)[C@H](C)O (stereo partly drawn)	> 100 µM	> 100 µM	> 100 µM	> 100 µM	> 100 µM	–	–	–	–	–	–	–	–	–	–
Nc1ccc(Oc2ccc(C34CC5C6CC7(c8ccc(Oc9ccc(N)cc9)cc8)CC5C(C3)C(C7)C6C4)cc2)cc1	> 100 µM	> 100 µM	> 100 µM	> 100 µM	> 100 µM	–	–	–	–	–	–	–	–	–	–
CC(C)CC(N)C(=O)NC(CNC(CCC(N)=O)C(=O)NC(CC(C)C)C(=O)NC(CC(C)C)C(=O)O)Cc1ccc2ccccc2c1 (stereo not drawn)	> 10 µM	> 10 µM	> 10 µM	> 10 µM	> 10 µM	–	–	–	–	–	–	–	–	–	–
COc1cc2ccnc(C#N)c2cc1OCc1ccccc1	–	–	> 100 µM	> 100 µM	> 100 µM	> 100 µM	> 100 µM	> 100 µM	> 100 µM	> 100 µM	> 100 µM	–	–	–	–
c1ccc2c(c1)CCN1CCc3ccccc3C1C2 (stereo not drawn)	> 100 µM	> 100 µM	> 100 µM	> 100 µM	> 100 µM	–	–	–	–	–	–	–	–	–	–
CNC(=O)O/N=C1\N(C)CN(c2ccccc2)C12CCN(CCCC(=O)c1ccc(F)cc1)CC2	> 100 µM	> 100 µM	> 100 µM	> 100 µM	> 100 µM	–	–	–	–	–	–	–	–	–	–
NC(=O)C1=C(O)[C@@]2(O)C(=O)C3=C(O)c4c(O)cccc4CC3C[C@H]2CC1=O (stereo partly drawn)	12.5 µM	13.7 µM	14.1 µM	17.8 µM	13.5 µM	–	–	–	–	–	–	–	–	–	–
CC1(C=O)CC(CCc2ccccc2)NC1Cc1ccc(O)cc1 (stereo not drawn)	30.8 µM	41.9 µM	36.4 µM	33.1 µM	33.8 µM	–	–	–	–	–	–	–	–	–	–
Cc1nn(CNc2ccc(F)c(Cl)c2)c(=S)n1/N=C/c1ccc(-c2ccc(Cl)cc2Cl)o1	34.6 µM	52.9 µM	35.9 µM	34.6 µM	33.7 µM	–	–	–	–	–	–	–	–	–	–
CCOC(=O)/C=C(/C(=O)OCC)n1ccc(=O)n(Cc2cn(CCCCOC(C)=O)nn2)c1=O	> 100 µM	> 100 µM	> 100 µM	> 100 µM	> 100 µM	–	–	–	–	–	–	–	–	–	–
COc1ccc2c(O)c1-c1c(OC)ccc(c1O)SSc1ccc(OC)c(c1O)-c1c(OC)ccc(c1O)SS2	> 100 µM	> 100 µM	> 100 µM	> 100 µM	> 100 µM	–	–	–	–	–	–	–	–	–	–
COC1(OC)CCN(Cc2ccccc2)C1=O	26.8 µM	> 100 µM	38.6 µM	> 52.8 µM	53.9 µM	–	–	–	–	–	–	–	–	–	–
COC(=O)CN1Cc2cc(C)cc(c2O)CN(CC(=O)OC)Cc2cc(C)cc(c2O)CN(CC(=O)OC)Cc2cc(C)cc(c2O)CN(CC(=O)OC)Cc2cc(C)cc(c2O)C1	50 µM	50 µM and > 100 µM	47.8 µM and > 100 µM	50 µM and > 100 µM	50 µM and > 100 µM	–	–	–	–	–	–	> 100 µM	23.3 µM	> 100 µM	34.1 µM
CC(=O)NC1C(OCc2ccccc2)OC(CO)C(O)C1OCC(=O)NC(C(=O)NC(CCC(=O)NCCCCCC(=O)Nc1ccc2c(c1)CN1C(=O)c3ccccc3C1=N2)C(N)=O)C(C)C (stereo not drawn)	50.4 µM	51 µM	40.8 µM	41.8 µM	60.8 µM	–	–	–	–	–	–	–	–	–	–
O=[N+]([O-])C(C(Cl)=C(Cl)Cl)=C(N1CCCCC1)N1CCCCC1	> 100 µM	70.8 µM	> 100 µM	> 100 µM	> 100 µM	–	–	–	–	–	–	–	–	–	–
CC(C)(C)OC(=O)N(O)CCCn1cnc2c(NC3CC3)ncnc21	> 100 µM	> 100 µM	> 100 µM	> 100 µM	> 100 µM	–	–	–	–	–	–	–	–	–	–
CN(C)CCC(=O)[C@@]1(O)CC[C@H]2[C@@H]3CC=C4C[C@@H](O)CC[C@]4(C)[C@H]3CC[C@@]21C	34.3 µM	51.1 µM	30.6 µM	32.2 µM	> 73.9 µM	–	–	–	–	–	–	–	–	–	–
CC(=O)N1C(c2[nH]c3ccccc3c2Cc2ccccc2)CCN1c1ccccc1 (stereo not drawn)	> 10 µM	> 10 µM	> 10 µM	> 10 µM	> 10 µM	–	–	–	–	–	–	–	–	–	–
CCn1c2ccccc2c2ccc(C3C4C(=O)N(c5cccc6ccccc56)C(=O)C4ON3C(C(N)=O)c3ccccc3)cc21 (stereo not drawn)	> 25 µM	> 25 µM	> 25 µM	> 25 µM	> 25 µM	–	–	–	–	–	–	–	–	–	–
